These results are taken from patent US20050249714A1, “Method of using secretin and compositions made therefrom for the treatment of autism and other neurological, behavioral and immunological disorders” (Repligen Corporation, a Massachusetts corporation, priority 1997, published 2005).

No end group written: not given here.

Experiment [1] deals with patient, a child with symptoms of autism. Nature of the experiment: Daily transdermal secretin with DMSO in the same patient (Example 2). The conditions noted are these: about 15 CU daily. Type of experiment: in vivo, human. On the procedure:
At the time of this treatment, the patient was […]. Secretin was administered transdermally using pharmaceutical grade dimethyl sulfoxide (DMSO) (generally 99.9% pure) available from Clinic Service Co., Box 2512, Hemet Calif. 92543. The secretin (Secretin-Ferring) was administered daily in a dosage of about 75 CU over a five day period (i.e., about 15 CU daily) For each treatment, about 4 drops of DMSO were placed onto the skin of the patient, about 15 CU of the crystalline secretin was placed onto the DMSO, and the composition was rubbed into the skin.

The subject of a further experiment is abnormal opioid peptides. As to conditions: autistic children responding to casein free and gluten free diet, after the secretin infusion; cited from earlier work.
Experiment [2] concerns patient, a child with symptoms of autism. The experiment can be described thus: Intravenous secretin infusion in a child with symptoms of autism (Example 1). The format is in vivo, human. On the procedure:
The present invention will be better understood from the following examples which are given by way of illustration and not by way of limitation. The patient, the same in both examples, is a child with symptoms of autism.
When the patient was […], the secretin was administered by way of an infusion as part of an upper gastrointestinal endoscopy. The secretin was used in this diagnostic procedure at the request of the patient's parents, one of which is an inventor of the present invention. The secretin used in this procedure is known as Secretin-Ferring available from Ferring Laboratories, Inc., Suffern, N.Y. (See Appendix A). The secretin was dissolved in a […] solution of sodium chloride and administered in a dosage of 2 clinical units (CU) per kilogram (kg) body weight by intravenous injection over one minute. (I.E. 30 IU IV for approximately 15 kilograms of body weight.)
The diagnostic tests performed on the patient during this procedure also indicated gastric inflammation. […] The following Table I summarizes the improvements observed in the patient within 3 weeks after the infusion of secretin.
Biomedical changes were also measured in the patient.
At the request of the patient's parents, a second infusion of secretin was performed about 9 months after the first infusion, and a third infusion of secretin was performed about three months after the second infusion.

On to “secretin (HSDGTFTSELSRLRDSARLQRLLQGLV-NH2; ends and bridges not checked; UniProt P63298 33-59, looked up) [polypeptide hormone secreted by the mucosa of the duodenum and upper jejunum; used as Secretin-Ferring from Ferring Laboratories]”, for which, in experiment [1], the overall improvements entry is “even more dramatic and significant improvements”. In the experiment with abnormal opioid peptides, the abnormal opioid peptides result is on record as “the peptides disappeared”. In addition, the “time at which the rate of the patient's progress appeared to decrease” value in experiment [2] (after the first infusion) is reported as “about 5 weeks”. In addition, in experiment [2] (after the treatment), the “perfusion of the right posterior parietal and right temporal lobes (SPECT scan)” value was “improved”. Further, the “results of second and third infusions” value in experiment [2] (second infusion about 9 months after the first, third about three months after the second) is on record as “achieved the same results”. In addition, the imitation of commands entry in experiment [2] (within 3 weeks after infusion, before: did not imitate) is “Will imitate almost any multi-step command”. In addition, the diet preferences result in experiment [2] (within 3 weeks after infusion, before: limited diet preferences) is on record as “No Change”. The “connections made between language and objects” value in experiment [2] (within 3 weeks after infusion, before: no apparent connections) was “Many connections made between new language”. Moreover, the interaction with videos result in experiment [2] (within 3 weeks after infusion, before: watch videos) is on record as “Now, gets “involved” interactively with their videos”. Besides, in experiment [2] (within days after the administration, no change in diet), the “chronic abnormal bowel movements” value is on record as “became normal”.
